Measurements taken from patent US7589080B2, “β-cyclodextrin compositions, and use to prevent transmission of sexually transmitted diseases” (priority 2000, dated 2009).

What was measured:
[1] = system: HIV-1RF; assay: Free-virus mediated syncytium assay (fusion from without); assay type: cell-based; conditions: MT2, SupT1, PM1; HIV-1RF >500 ng/ml p24, 3 hr at 37° C
Method: Syncytium assays were carried out essentially as previously described (Hildreth and Orentas, supra, 1989). Briefly, cell lines or PHA blasts were treated with 20 mM 2-OH-βCD in RPMI 1640 or medium alone for 1 hr at 37° C. before washing twice with PBS. The treated cells were then mixed with HIV-1 infected cells, each at density of 2×10^6/ml, in cRPMI and incubated at 37° C. Syncytia were scored and photographed 3 to 6 hr after mixing. For free-virus mediated syncytium assays (“fusion from without”), HIV-1RF from infected PM1 culture supernatants were clarified by 0.45 Tm filtration (p24 concentration greater than 500 ng/ml). 2-OH-βCD-treated and non-treated cell lines were added to the virus preparations and incubated at 37° C. for 3 hr before counting syncytia.
The effect of cholesterol depletion on virus-cell fusion (“fusion from without”) was also determined.

[2] = system: HIV-1 primary strain 97.099, M-tropic (R5); assay: Primary virus infection assay, isolate 97.099; assay type: cell-based; conditions: PHA blasts treated with 10 mM; p24 after 6 days
Method: Peripheral blood mononuclear cells (PBMCS) were isolated by Ficoll-Hypaque centrifugation from buffy coats obtained from the Johns Hopkins Hemapheresis Center. Cells were stimulated for 3 days with 3 Tg/ml PHA, washed with iRPMI, and treated with 10 mM 2-OH-βCD in cRPMI for 1 hr. Cells were then washed twice with iRPMI and resuspended in cRPMI (1×10^6/ml) supplemented with 50 U/ml IL-2 and containing primary HIV-1 strains at 20 ng/ml p24. Cells were incubated with virus for 24 hr at 37° C. before washing twice with iRPMI. Cells were then resuspended in cRPMI supplemented with 50 U/ml IL-2 and cultured for 6 days at 37° C. Supernatants were collected and p24 was quantitated by standard p24 ELISA.
βCD treatment blocks HIV-1 virus infection. HIV-1 can spread in cell cultures without necessarily exerting cytopathic effects. […] To test the effects of cholesterol depletion on HIV-1 infection of primary T cells by free virus, PHA blasts were treated with 10 mM 2-OH-βCD or medium alone, then were exposed to HIV-1 for 2 hr before washing to remove input virus. Viability and growth of the PHA blasts was not affected by treatment with the βCD under the conditions used. P24 release was measured after an addition 6 days in culture. Two primary strains of HIV-1, 97.099 and 97.534, M-tropic (R5) and dual-tropic (X4R5), respectively, were tested.

2-hydroxypropyl-β-cyclodextrin [2-OH-βCD]
Syncytium formation on exposure to free virus [1]: no syncytium formation | Infection of PHA blasts by HIV isolate 97.099 (p24 release) [2]: completely inhibited
